In ChEMBL document CHEMBL1157838, “Cryptosphaerolide, a cytotoxic Mcl-1 inhibitor from a marine-derived ascomycete related to the genus Cryptosphaeria” (J Nat Prod, 2010):

Legend:
HCT-116 = assay: Cytotoxicity against human HCT116 cells after 72 hrs by MTS/PMS assay; assay type: functional, cell-based; settings: HCT-116, 72 h
[1] = biological target: Induced myeloid leukemia cell differentiation protein Mcl-1 (Homo sapiens, UniProt Q07820); assay: Inhibition of Mcl1 protein by Mcl1/Bak fluorescence resonance assay
Chain of Induced myeloid leukemia cell differentiation protein Mcl-1 (Q07820 whole entry): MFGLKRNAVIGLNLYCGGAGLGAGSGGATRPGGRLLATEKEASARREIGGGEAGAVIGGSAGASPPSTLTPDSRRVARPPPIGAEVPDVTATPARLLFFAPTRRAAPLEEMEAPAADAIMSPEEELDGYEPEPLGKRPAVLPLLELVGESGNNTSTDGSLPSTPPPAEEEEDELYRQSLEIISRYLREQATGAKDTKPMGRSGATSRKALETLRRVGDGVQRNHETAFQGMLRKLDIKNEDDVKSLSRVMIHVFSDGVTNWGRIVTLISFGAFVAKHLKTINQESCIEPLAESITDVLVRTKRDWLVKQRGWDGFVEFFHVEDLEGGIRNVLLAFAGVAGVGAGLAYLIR

| SMILES | IC50 (HCT-116) | IC50 [1] |
| --- | --- | --- |
| C=C1CO[C@@]2(O)[C@H]3O[C@]34[C@H](OC(=O)C(O)(CO)CC(C)CC(C)CC)CC[C@H](C)[C@@]4(C)C[C@@H]12 (stereo partly drawn) [CRYPTOSPHAEROLIDE] | 4.5 µM | 11.4 µM |
| C=C1CO[C@@]2(OC)[C@H]3O[C@]34[C@H](OC(=O)C(O)(CO)CC(C)CC(C)CC)CC[C@H](C)[C@@]4(C)C[C@@H]12 (stereo partly drawn) |  | 12.5 µM |
